Measurements from ChEMBL document CHEMBL1144287, “Synthesis and antifungal activity of noble 5-arylamino- and 6-arylthio-4,7-dioxobenzoselenazoles” (2005).
Converted amounts (≈) assume the structure as drawn.

How the values were obtained:
Type in all cases: functional
Pichia kudriavzevii = test: Minimum inhibitory concentration was measured against Candida krusei ATCC 749 using modified Sabouraud dextrose broth; (a)
Aspergillus niger = test: Minimum inhibitory concentration was measured against Aspergillus niger KCTC 1231 using modified Sabouraud dextrose broth; (a)
Aspergillus flavus = test: Minimum inhibitory concentration was measured against Aspergillus flavus KCCM 11899 using modified Sabouraud dextrose broth; (a)
Candida tropicalis = test: Minimum inhibitory concentration was measured against Candida tropicalis ATCC 28775 using modified Sabouraud dextrose broth; (a)
Candida albicans = test: Minimum inhibitory concentration was measured against Candida albicans ATCC 10231 using modified Sabouraud dextrose broth; (a)

## COC1=C(Sc2ccc(C)cc2)C(=O)c2[se]c(C)nc2C1=O
Pichia kudriavzevii
  MIC: 25 mg/L (≈ 66.1 µM)
Aspergillus niger
  MIC: 25 mg/L (≈ 66.1 µM)
Aspergillus flavus
  MIC: 50 mg/L (≈ 132 µM)
Candida tropicalis
  MIC: 6.3 mg/L (≈ 16.7 µM)
Candida albicans
  MIC: 12.5 mg/L (≈ 33 µM)

## COC1=CC(=O)c2[se]c(C)nc2C1=O
Pichia kudriavzevii
  MIC: 25 mg/L (≈ 97.6 µM)
Aspergillus niger
  MIC: 25 mg/L (≈ 97.6 µM)
Aspergillus flavus
  MIC: 50 mg/L (≈ 195 µM)
Candida tropicalis
  MIC: 12.5 mg/L (≈ 48.8 µM)
Candida albicans
  MIC: 50 mg/L (≈ 195 µM)

## COC1=C(Sc2ccc(OC)cc2)C(=O)c2[se]c(C)nc2C1=O
Pichia kudriavzevii
  MIC: 12.5 mg/L (≈ 31.7 µM)
Aspergillus niger
  MIC: 12.5 mg/L (≈ 31.7 µM)
Aspergillus flavus
  MIC: 25 mg/L (≈ 63.4 µM)
Candida tropicalis
  MIC: 12.5 mg/L (≈ 31.7 µM)
Candida albicans
  MIC: 25 mg/L (≈ 63.4 µM)

## COc1ccc(NC2=CC(=O)c3[se]c(C)nc3C2=O)cc1
Pichia kudriavzevii
  MIC: 12.5 mg/L (≈ 36 µM)
Aspergillus niger
  MIC: 12.5 mg/L (≈ 36 µM)
Aspergillus flavus
  MIC: 12.5 mg/L (≈ 36 µM)
Candida tropicalis
  MIC: 12.5 mg/L (≈ 36 µM)
Candida albicans
  MIC: 12.5 mg/L (≈ 36 µM)

## COC1=C(Sc2ccc(F)cc2)C(=O)c2[se]c(C)nc2C1=O
Pichia kudriavzevii
  MIC: 25 mg/L (≈ 65.4 µM)
Aspergillus niger
  MIC: 50 mg/L (≈ 131 µM)
Aspergillus flavus
  MIC: 50 mg/L (≈ 131 µM)
Candida tropicalis
  MIC: 3.2 mg/L (≈ 8.37 µM)
Candida albicans
  MIC: 25 mg/L (≈ 65.4 µM)

## COC1=C(Sc2ccc(F)c(F)c2)C(=O)c2[se]c(C)nc2C1=O
Pichia kudriavzevii
  MIC: 6.3 mg/L (≈ 15.7 µM)
Aspergillus niger
  MIC: 25 mg/L (≈ 62.5 µM)
Aspergillus flavus
  MIC: 25 mg/L (≈ 62.5 µM)
Candida tropicalis
  MIC: 6.3 mg/L (≈ 15.7 µM)
Candida albicans
  MIC: 12.5 mg/L (≈ 31.2 µM)

## COC1=C(Sc2ccc([N+](=O)[O-])cc2)C(=O)c2[se]c(C)nc2C1=O
Pichia kudriavzevii
  MIC: 25 mg/L (≈ 61.1 µM)
Aspergillus niger
  MIC: 50 mg/L (≈ 122 µM)
Aspergillus flavus
  MIC: 12.5 mg/L (≈ 30.5 µM)
Candida tropicalis
  MIC: 1.6 mg/L (≈ 3.91 µM)
Candida albicans
  MIC: 3.2 mg/L (≈ 7.82 µM)

## COC1=C(Sc2ccc(Cl)cc2)C(=O)c2[se]c(C)nc2C1=O
Pichia kudriavzevii
  MIC: 25 mg/L (≈ 62.7 µM)
Aspergillus niger
  MIC: 25 mg/L (≈ 62.7 µM)
Aspergillus flavus
  MIC: 25 mg/L (≈ 62.7 µM)
Candida tropicalis
  MIC: 12.5 mg/L (≈ 31.3 µM)
Candida albicans
  MIC: 25 mg/L (≈ 62.7 µM)

## COC1=C(Sc2ccccc2)C(=O)c2[se]c(C)nc2C1=O
Pichia kudriavzevii
  MIC: 6.3 mg/L (≈ 17.3 µM)
Aspergillus niger
  MIC: 12.5 mg/L (≈ 34.3 µM)
Aspergillus flavus
  MIC: 12.5 mg/L (≈ 34.3 µM)
Candida tropicalis
  MIC: 6.3 mg/L (≈ 17.3 µM)
Candida albicans
  MIC: 6.3 mg/L (≈ 17.3 µM)

## Cc1nc2c([se]1)C(=O)C=C(Nc1ccccc1)C2=O
Pichia kudriavzevii
  MIC: 6.3 mg/L (≈ 19.9 µM)
Aspergillus niger
  MIC: 6.3 mg/L (≈ 19.9 µM)
Aspergillus flavus
  MIC: 6.3 mg/L (≈ 19.9 µM)
Candida tropicalis
  MIC: 6.3 mg/L (≈ 19.9 µM)
Candida albicans
  MIC: 6.3 mg/L (≈ 19.9 µM)

## Cc1nc2c([se]1)C(=O)C=C(Nc1ccc(F)cc1)C2=O
Pichia kudriavzevii
  MIC: 6.3 mg/L (≈ 18.8 µM)
Aspergillus niger
  MIC: 6.3 mg/L (≈ 18.8 µM)
Aspergillus flavus
  MIC: 12.5 mg/L (≈ 37.3 µM)
Candida tropicalis
  MIC: 6.3 mg/L (≈ 18.8 µM)
Candida albicans
  MIC: 6.3 mg/L (≈ 18.8 µM)

## Cc1nc2c([se]1)C(=O)C=C(Nc1ccc(Cl)cc1)C2=O
Pichia kudriavzevii
  MIC: 12.5 mg/L (≈ 35.5 µM)
Aspergillus niger
  MIC: 12.5 mg/L (≈ 35.5 µM)
Aspergillus flavus
  MIC: 12.5 mg/L (≈ 35.5 µM)
Candida tropicalis
  MIC: 12.5 mg/L (≈ 35.5 µM)
Candida albicans
  MIC: 12.5 mg/L (≈ 35.5 µM)

## Cc1nc2c([se]1)C(=O)C=C(Nc1ccc(Br)cc1)C2=O
Pichia kudriavzevii
  MIC: 50 mg/L (≈ 126 µM)
Aspergillus niger
  MIC: 25 mg/L (≈ 63.1 µM)
Aspergillus flavus
  MIC: 50 mg/L (≈ 126 µM)
Candida tropicalis
  MIC: 50 mg/L (≈ 126 µM)
Candida albicans
  MIC: 12.5 mg/L (≈ 31.6 µM)

## Cc1nc2c([se]1)C(=O)C=C(Nc1ccc(C(F)(F)F)cc1)C2=O
Pichia kudriavzevii
  MIC: 3.2 mg/L (≈ 8.31 µM)
Aspergillus niger
  MIC: 12.5 mg/L (≈ 32.5 µM)
Aspergillus flavus
  MIC: 25 mg/L (≈ 64.9 µM)
Candida tropicalis
  MIC: 3.2 mg/L (≈ 8.31 µM)
Candida albicans
  MIC: 25 mg/L (≈ 64.9 µM)

## Cc1nc2c([se]1)C(=O)C=C(Nc1cccc(F)c1)C2=O
Pichia kudriavzevii
  MIC: 6.3 mg/L (≈ 18.8 µM)
Aspergillus niger
  MIC: 12.5 mg/L (≈ 37.3 µM)
Aspergillus flavus
  MIC: 12.5 mg/L (≈ 37.3 µM)
Candida tropicalis
  MIC: 3.2 mg/L (≈ 9.55 µM)
Candida albicans
  MIC: 12.5 mg/L (≈ 37.3 µM)

## Cc1nc2c([se]1)C(=O)C=C(Nc1cc(Cl)cc(Cl)c1)C2=O
Pichia kudriavzevii
  MIC: 25 mg/L (≈ 64.8 µM)
Aspergillus niger
  MIC: 12.5 mg/L (≈ 32.4 µM)
Aspergillus flavus
  MIC: 12.5 mg/L (≈ 32.4 µM)
Candida tropicalis
  MIC: 3.2 mg/L (≈ 8.29 µM)
Candida albicans
  MIC: 1.6 mg/L (≈ 4.14 µM)

## Cc1nc2c([se]1)C(=O)C=C(Nc1ccc(I)cc1)C2=O
Pichia kudriavzevii
  MIC: 25 mg/L (≈ 56.4 µM)
Aspergillus niger
  MIC: 25 mg/L (≈ 56.4 µM)
Aspergillus flavus
  MIC: 25 mg/L (≈ 56.4 µM)
Candida tropicalis
  MIC: 25 mg/L (≈ 56.4 µM)
Candida albicans
  MIC: 25 mg/L (≈ 56.4 µM)

## Cc1ccc(NC2=CC(=O)c3[se]c(C)nc3C2=O)cc1
Pichia kudriavzevii
  MIC: 25 mg/L (≈ 75.5 µM)
Aspergillus niger
  MIC: 6.3 mg/L (≈ 19 µM)
Aspergillus flavus
  MIC: 12.5 mg/L (≈ 37.7 µM)
Candida tropicalis
  MIC: 25 mg/L (≈ 75.5 µM)
Candida albicans
  MIC: 6.3 mg/L (≈ 19 µM)

## Nc1nc(=O)[nH]cc1F [FLUCYTOSINE]
Pichia kudriavzevii
  MIC: 50 mg/L (≈ 387 µM)
Aspergillus niger
  MIC: 12.5 mg/L (≈ 96.8 µM)
Aspergillus flavus
  MIC: 50 mg/L (≈ 387 µM)
Candida tropicalis
  MIC: 12.5 mg/L (≈ 96.8 µM)
Candida albicans
  MIC: 12.5 mg/L (≈ 96.8 µM)
